In turn, `C[C@]12CCC(O)CC1=CC[C@@H]1[C@@H]2CC[C@]2(C)C(O)CC[C@@]12C` (stereo not given in full) had a melting point of 182 to 184 °C.

In the case of `N#C/C(=N\Nc1cc(Cl)ccc1Cl)c1nc2ccccc2[nH]1`, the melting point was in the range of 300 to 302 °C.

`CC(Oc1ccc(Cl)cc1Cl)C(=O)Nc1ccc2nc(SCc3ccccc3)sc2c1` (stereo not given) showed a melting point of 169 °C.

The compound `COc1cccc(C(=O)CBr)c1` returned a melting point of 62 °C.

`O=C(CI)c1ccccc1` displayed a melting point of 34.4 °C.

Take `Sc1ccccc1`: the melting point is -14.9 °C.

Turning to `O=C(O)CC=Cc1ccccc1`, the melting point was determined as 87 °C.

As for `Cc1cc(Cl)ccc1C(=O)O`, the melting point lay in the range of 172 to 173 °C.

Regarding `Cc1nsc(-c2ccc(Cl)cc2)n1`, the melting point lay within 81 to 83 °C.

In turn, `CCOc1ccccc1NC(C)=O` came in with a melting point of 79 °C.

In turn, `NC(=O)NN=Cc1ccc2c(Br)cccc2c1` displayed a melting point of 270 °C.

The compound `CC(=O)C(=NNc1ccccc1)c1cc(C(=NNc2ccccc2)C(C)=O)c([N+](=O)[O-])cc1[N+](=O)[O-]` gave a melting point of 215 °C.

The compound `COC(=O)c1cocc1C(=O)OC` yielded a melting point of 42 to 47 °C.

`NC(=S)c1ccccc1F` gave a melting point of 80 to 84 °C.

As to `Cc1cc(C(=O)NN)nn1C(C)(C)C`, the melting point lay within 85 to 88 °C.

For the compound `Cc1ccc(NC(=O)C=Cc2ccc(C=CC(=O)Nc3ccc(C)cc3)cc2)cc1`, the melting point is 315 °C.

For the compound `O=C1CCN(C(=O)CCl)N1`, the melting point came to 146 °C.

As for `CCc1cccc(CC)c1N(COC)C(=O)CCl`, the melting point was 41 °C.

In turn, `CC1CCCC(C)C1O` (stereo not given) showed a melting point of 32.5 °C.

Compound `O=Cc1cc(C=O)c(O)c(C=O)c1` yielded a melting point of 179 to 180 °C.

Turning to `Clc1ccc2c(c1)Cc1cc(Cl)ccc1-2`, the melting point turned out to be 128 °C.

For `O=C1C2CCCC1CCC2`, the melting point was in the range of 153 to 157 °C.

The compound `O=C(NCCBr)c1cc([N+](=O)[O-])cc([N+](=O)[O-])c1` registered a melting point of 140 °C.

In the case of `CCP(=O)(c1ccccc1)c1ccccc1`, the melting point was 122 °C.

On to `NC(=O)c1c(Cl)cc(C(F)(F)F)cc1Cl`, for which the melting point fell in the range of 166 to 169 °C.

`CCOC(=O)c1csc(-c2ccc(Br)s2)n1` had a melting point of 97 to 101 °C.

Turning to `CCC(C)S` (stereo not given), the melting point was -165 °C.

In the case of `Nc1ccc(C(F)(F)F)nc1`, the melting point was 39 to 40 °C.

Turning to `CCCCCCCCCCCCCCCCCC[Si](OC)(OC)OC`, the melting point was found to be 15 °C.

The compound `COC(=O)c1ccccc1S(=O)(=O)NC(=O)Nc1nc(OC(F)F)cc(OC(F)F)n1` showed a melting point of 196 °C.

For `NC(=O)CS(=O)(=O)c1ccccc1`, the melting point worked out at 156 °C.

Consider `Cc1nn(C)c(C)c1N`, for which the melting point was 102 °C.

`C=CCNC(=S)NN` returned a melting point of 93 to 96 °C.

For `CCC1=CCCC1=NNc1ccc([N+](=O)[O-])cc1[N+](=O)[O-]`, the melting point came to 220 °C.

On to `COC1OC(C(=O)O)C(OC2OC(C(=O)O)C(OC)C(O)C2O)C(O)C1O` (stereo not given), for which the melting point was found to be 300 °C.

`CCOc1cc([N+](=O)[O-])c(OCC)cc1N1CCOCC1` yielded a melting point of 139 to 141 °C.

On to `O=C(O)Cc1ccc([N+](=O)[O-])cc1`, for which the melting point was found to be 154 °C.

Compound `Oc1ccnc(Cl)c1` registered a melting point of 171 °C.

As to `Nc1ccc(SCC(=O)O)cc1`, the melting point was 193 to 203 °C.

For `CSC(S)=Nc1ccc(C)cc1`, the melting point lay in the range of 175 to 176 °C.

`BrCC=Cc1ccccc1` returned a melting point of 26 to 32 °C.

The compound `COc1cc2c(cc1OC)C(c1ccc([N+](=O)[O-])cc1)N(C(C)=O)CC2` (stereo not given) gave a melting point of 183 to 185 °C.

`Cc1cc2ccccc2cc1CC(F)(F)F` had a melting point of 75 to 75.5 °C.

Compound `NC(=S)c1ccc(-c2csnn2)cc1` came in with a melting point of 223 to 228 °C.

For `C#CC1(O)CCC2C3CCC4=CCCCC4C3C(=C)CC21CC` (stereo not given), the melting point is 110 °C.

The record behind these values is a melting point compilation (Tetko et al.).
